# US20250120958A1, “Treatment of GM2 Gangliosidosis” (Azafaros B.V., priority 2022, published 2025)
# What was measured:
# [1] = Stability of dosing formulation; assay type: physicochemical; settings: 0.01 mg/mL-2 mg/mL in purified water/citric acid/NaOH, storage 15-25° C.
# Description: • 1. Introduction and preparation of vehicle control • 1.1. Read the method prior to proceeding with laboratory work • 1.2. Read Study Plan • 1.3. Ensure the work-station is clean and select the correct equipment, clean glassware etc. for the study. • 1.4. Formulate in ascending order of concentration. • 1.5. Start with control group—measure the required volume of purified water and magnetically stir. Whilst magnetically stirring, adjust pH to 3.5-2.5 using 1 M citric acid. Record volumes in raw data. • 1.6. Stir for a minimum of 30 minutes. Record stir times in raw data. • 1.7. Adjust the pH to 4.5-5.5 using 0.1 M NaOH. Record volumes in raw data. • 1.8. Stir for a minimum of 20 minutes using a magnetic stirrer. Record stir times in the raw data. • 1.9. Sample at this point if required. • 2. Test item formulations • 2.1. Weigh the required amount of test item: e.g., For a 0.9 mg/mL target concentration in 600 mL, weigh 540 mg. • 2.2. Add 70% of the final volume of purified water to the test item to obtain a thin suspension (may be difficult to see at these low concentrations): e.g., 420 mL • 2.3. Add not more than 3 molar equivalents of citric acid, and record the pH which should be pH 3.5-2.5, e.g., 3.74 mL of 1 M citric acid solution in water. • Note: The suspension should clear up as an indication for dissolution of the test item. • 2.4. […]
# GCS = target: T1, GCS (Homo sapiens, UniProt Q16739); assay: In vitro potency on GCS (glucosylceramide synthase); assay type: biochemical
# T1 sequence (Q16739 1-394): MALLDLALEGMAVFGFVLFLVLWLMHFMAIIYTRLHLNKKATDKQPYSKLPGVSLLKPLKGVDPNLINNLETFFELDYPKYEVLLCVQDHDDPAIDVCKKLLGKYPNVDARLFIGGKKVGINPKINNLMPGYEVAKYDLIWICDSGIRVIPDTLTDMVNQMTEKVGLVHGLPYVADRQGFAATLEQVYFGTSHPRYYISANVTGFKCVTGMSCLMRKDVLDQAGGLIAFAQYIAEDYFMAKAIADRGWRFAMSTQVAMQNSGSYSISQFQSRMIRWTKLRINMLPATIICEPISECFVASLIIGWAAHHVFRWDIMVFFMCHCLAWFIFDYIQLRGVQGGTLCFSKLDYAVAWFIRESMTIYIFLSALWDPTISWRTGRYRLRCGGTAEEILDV
# GbA2 = target: T2, GbA2 (Homo sapiens, UniProt Q9HCG7); assay: In vitro potency on GbA2 (non-lysosomal glucosylceramidase); assay type: biochemical
# T2 sequence (Q9HCG7 1-927): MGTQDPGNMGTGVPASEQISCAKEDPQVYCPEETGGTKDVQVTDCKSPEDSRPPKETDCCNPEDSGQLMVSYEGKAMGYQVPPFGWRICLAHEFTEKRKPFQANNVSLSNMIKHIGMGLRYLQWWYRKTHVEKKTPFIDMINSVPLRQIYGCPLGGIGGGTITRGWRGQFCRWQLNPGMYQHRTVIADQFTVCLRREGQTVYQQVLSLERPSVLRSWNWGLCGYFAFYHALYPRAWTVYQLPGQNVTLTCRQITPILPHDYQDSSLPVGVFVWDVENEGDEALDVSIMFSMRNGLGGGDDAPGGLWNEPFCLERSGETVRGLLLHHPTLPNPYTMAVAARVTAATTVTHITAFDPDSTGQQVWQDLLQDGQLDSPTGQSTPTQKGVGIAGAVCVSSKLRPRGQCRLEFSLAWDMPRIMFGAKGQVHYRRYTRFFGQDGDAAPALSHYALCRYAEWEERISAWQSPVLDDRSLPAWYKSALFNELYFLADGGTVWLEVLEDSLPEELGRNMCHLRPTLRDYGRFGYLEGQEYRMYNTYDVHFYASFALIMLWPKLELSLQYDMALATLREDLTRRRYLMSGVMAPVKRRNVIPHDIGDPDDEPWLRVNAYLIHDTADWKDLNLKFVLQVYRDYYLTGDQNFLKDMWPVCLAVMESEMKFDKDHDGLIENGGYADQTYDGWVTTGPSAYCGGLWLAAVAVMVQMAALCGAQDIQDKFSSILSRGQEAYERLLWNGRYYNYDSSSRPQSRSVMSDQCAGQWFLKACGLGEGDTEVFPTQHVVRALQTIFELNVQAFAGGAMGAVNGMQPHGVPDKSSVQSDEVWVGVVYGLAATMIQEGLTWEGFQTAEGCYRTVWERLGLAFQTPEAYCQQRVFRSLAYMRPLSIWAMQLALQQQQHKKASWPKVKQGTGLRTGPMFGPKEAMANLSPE
# GlcCer C16:0 and C18:0 = assay: Target engagement: GlcCer C16:0 and C18:0 in the cerebellum; assay type: in vivo, mouse; settings: treated vs untreated heterozygous or Hexb (−/−) mice
# Description: Consistent with this action, the inhibition of GbA2 should result in an increase in GlcCer species in the brain where GbA2 plays a significant role.
smiles,measurement,setting,value
OC[C@H]1[C@@H](O)[C@H](O)[C@@H](O)CN1CCCCCOCc1ccc(-c2ccccc2)c(F)c1 [AZ-3102],Stability of formulation,[1],8 days
same,inhibitory activity on GCS,GCS,low nM
same,IC50,GCS; in vitro potency,2.54 nM
same,inhibitory activity on GbA2,GbA2,low nM
same,IC50,GbA2; in vitro potency,0.692 nM
same,increase in GlcCer C16:0,GlcCer C16:0 and C18:0,approximately 10 fold
same,increase in GlcCer C18:0,GlcCer C16:0 and C18:0,approximately 10 fold
